Read-outs that look alike come from different tables or passages of the source.
Experiments:
[1] = molecular target: AAK1 (Homo sapiens, UniProt Q2M2I8); assay: pAP2M1 cell-based assay (in-cell Western); details: Hela cells co-transfected with AP2M1 and AAK1, 3 hr treatment, read-out: AAK1 In-cell Western: IC50
Excerpt: pAP2M1 Cell-Based Assay (in-Cell Western):
The plate was read on Licor Odyssey CLx imaging system (LICOR) to acquire fluorescence intensity at 700 channel and 800 channel.
Data analysis: Fluorescence intensity at 700 channel served as internal standard and 800 channel were normalized with 700 channel.

[2] = molecular target: T1, GAK (amino acids Q25-N335) (Homo sapiens, UniProt O14976); assay: GAK pSENs assay; assay type: biochemical; details: read-out: GAK pSENs:IC50
T1 construct: against GAK (amino acids Q25-N335); 6His (N, cleaved yes)
T1 sequence (O14976 25-335): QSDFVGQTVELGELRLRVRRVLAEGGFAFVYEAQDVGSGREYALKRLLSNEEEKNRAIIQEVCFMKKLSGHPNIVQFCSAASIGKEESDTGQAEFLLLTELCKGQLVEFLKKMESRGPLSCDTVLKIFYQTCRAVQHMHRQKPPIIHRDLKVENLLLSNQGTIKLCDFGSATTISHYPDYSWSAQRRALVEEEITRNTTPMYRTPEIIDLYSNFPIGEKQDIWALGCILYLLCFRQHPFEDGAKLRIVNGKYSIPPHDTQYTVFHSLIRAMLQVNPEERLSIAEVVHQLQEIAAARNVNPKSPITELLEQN
Procedure: The recombinant proteins were independently expressed in Escherichia coli BL21(DE3) cells cultured in Luria-Bertani (LB) medium until OD600 reached 0.6-0.8, then cooled to 15° C. and supplemented with 0.5 mM isopropyl 1-thio-D-galactopyranoside (IPTG) induce protein expression 16 h. Cells were harvested and resuspended in lysis buffer (50 mM HEPES pH 7.5, 500 mM NaCl, 5 mM imidazole, 5% glycerol, 0.5 mM Tris (2-carboxyethyl) phosphine (TCEP), cOmplete Protease Inhibitor Tablet (Roche)) and lysed by microfludics high pressure homogenizer (UH-06, Union-Biotech). Proteins were purified using […] chromatography (His FF column, Bestchrom) and eluted stepwise in binding buffer with 20-300 mM imidazole. Removal of the hexahistidine tag was performed at 4° C. overnight using recombinant TEV protease and reacted with BirA to obtain the corresponding biotinylated-AAK1, BIKE or GAK proteins. Further separated in the reverse Strep column (Strep-Tactin® XT, IBA). The Biotin elution sample was collected containing untagged biotinylated protein was then purified by Ion-exchange chromatography (Mono Q 10/100 GL, Cytiva) and Size-exclusion chromatography (HiLoad 16/600 Superdex 200 pg, Cytiva). The pure protein was stored in a storage buffer 50 mM HEPES (pH 7.5), 300 mM NaCl, 5% glycerol at −80° C. Protein were characterized by SDS-PAGE, LC-MS and aSEC.
This example describes one illustrative method for determining the IC50 of the compounds of the present invention against GAK (amino acids Q25-N335).

[3] = molecular target: T2, BIKE (amino acids S38-E345) (K320A, K321A) (Homo sapiens, UniProt Q9NSY1, K320A/K321A); assay: BIKE pSENs assay; assay type: biochemical; details: read-out: BIKE pSENs: IC50
T2 construct: against BIKE (amino acids S38-E345) (K320A, K321A); 6His (N, cleaved yes)
T2 sequence (Q9NSY1 38-345 K320A/K321A): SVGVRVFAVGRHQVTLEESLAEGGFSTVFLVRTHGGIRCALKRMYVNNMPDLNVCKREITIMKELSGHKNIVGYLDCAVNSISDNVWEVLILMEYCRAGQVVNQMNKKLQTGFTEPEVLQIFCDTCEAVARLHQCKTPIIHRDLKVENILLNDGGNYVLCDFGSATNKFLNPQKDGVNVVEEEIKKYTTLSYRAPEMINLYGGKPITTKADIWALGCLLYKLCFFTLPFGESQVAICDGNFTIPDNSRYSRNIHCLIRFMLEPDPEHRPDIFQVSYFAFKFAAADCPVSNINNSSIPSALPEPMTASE
In short: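 E. coli-expressed, biotinylated, tag-free BIKE at 20 nM in HEPES pH 7.5 buffer with 10 mM MgCl2 preincubated with compound 15 min at 25° C. Reaction started with 30 uM AQT0759 sensor peptide and 40 uM ATP (concentrations before 1:1 mixing).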

[4] = molecular target: T3, AAK1 (amino acids T27-A365) (Homo sapiens, UniProt Q2M2I8); assay: AAK1 pSENs assay; assay type: biochemical; details: read-out: AAK1 pSENs: EIC50
T3 construct: against AAK1 (amino acids T27-A365); 6His (N, cleaved yes)
T3 sequence (Q2M2I8 27-365): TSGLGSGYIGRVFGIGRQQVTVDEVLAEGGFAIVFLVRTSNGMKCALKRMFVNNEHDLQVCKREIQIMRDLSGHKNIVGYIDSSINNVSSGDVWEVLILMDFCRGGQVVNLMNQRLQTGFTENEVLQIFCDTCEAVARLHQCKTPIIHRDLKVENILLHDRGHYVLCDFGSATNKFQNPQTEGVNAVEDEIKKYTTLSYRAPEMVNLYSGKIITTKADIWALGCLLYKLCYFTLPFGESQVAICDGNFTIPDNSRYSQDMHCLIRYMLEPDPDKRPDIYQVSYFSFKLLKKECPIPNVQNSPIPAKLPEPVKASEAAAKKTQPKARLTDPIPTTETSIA
In short: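 Biotinylated, tag-free AAK1 T27-A365 expressed in E. coli was held at 20 nM in enzyme solution (HEPES pH 7.5, 10 mM MgCl2, DTT, EGTA, Brij35, BSA) and preincubated with compound for 15 min at 25 °C. The reaction was started with an equal volume of substrate solution containing 30 uM AQT0759 peptide and 70 uM ATP. IC50 determined.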

Sequence of AAK1 (Q2M2I8 whole entry): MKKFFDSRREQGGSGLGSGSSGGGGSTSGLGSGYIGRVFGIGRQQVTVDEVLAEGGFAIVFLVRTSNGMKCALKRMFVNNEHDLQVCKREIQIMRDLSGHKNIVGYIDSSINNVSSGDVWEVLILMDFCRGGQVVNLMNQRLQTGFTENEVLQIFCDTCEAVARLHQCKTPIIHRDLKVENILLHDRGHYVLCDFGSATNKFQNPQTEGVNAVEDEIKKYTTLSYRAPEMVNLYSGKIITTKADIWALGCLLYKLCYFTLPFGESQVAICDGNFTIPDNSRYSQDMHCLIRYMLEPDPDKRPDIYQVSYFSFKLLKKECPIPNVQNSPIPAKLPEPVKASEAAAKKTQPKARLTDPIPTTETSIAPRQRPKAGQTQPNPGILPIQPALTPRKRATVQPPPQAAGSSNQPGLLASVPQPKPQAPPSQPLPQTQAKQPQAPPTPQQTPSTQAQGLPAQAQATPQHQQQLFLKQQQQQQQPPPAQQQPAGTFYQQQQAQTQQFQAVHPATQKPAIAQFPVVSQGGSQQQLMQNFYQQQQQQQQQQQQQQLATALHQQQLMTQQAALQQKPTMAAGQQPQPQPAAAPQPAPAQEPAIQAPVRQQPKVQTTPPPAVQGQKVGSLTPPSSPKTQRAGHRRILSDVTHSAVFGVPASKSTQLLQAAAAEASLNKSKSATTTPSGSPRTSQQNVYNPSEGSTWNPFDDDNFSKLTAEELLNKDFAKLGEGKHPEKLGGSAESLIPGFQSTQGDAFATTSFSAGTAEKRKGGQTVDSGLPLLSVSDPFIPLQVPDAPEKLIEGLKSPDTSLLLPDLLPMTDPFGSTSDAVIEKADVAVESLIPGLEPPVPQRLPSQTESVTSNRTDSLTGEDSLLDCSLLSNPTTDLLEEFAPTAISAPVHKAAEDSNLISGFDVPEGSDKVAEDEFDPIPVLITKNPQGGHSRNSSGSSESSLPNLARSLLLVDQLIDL

IC50 ([1]; class symbols) [nM]	IC50 ([2]; class symbols) [nM]	IC50 ([3]; class symbols) [nM]	IC50 ([4]; class symbols) [nM]	IC50 ([1]; numeric values) [nM]	IC50 ([2]; numeric values) [nM]	IC50 ([3]; numeric values) [nM]	IC50 ([4]; numeric values) [nM]	Structure (SMILES)
501 to 1500	151 to 500	51 to 150	1 to 50					CN(CCNc1ccn2ncc(-c3cccnc3OC3CC3)c2n1)C(=O)O[C@]1(C)CCNC1 [Compound I-61, (R)-3-methylpyrrolidin-3-yl (2-((3-(2-cyclopropoxypyridin-3-yl)pyrazolo[1,5-a]pyrimidin-5-yl)amino)ethyl)(methyl)carbamate]
501 to 1500	501 to 1500	501 to 1500	51 to 150					CC(C)(C)OC(=O)NCCNc1nc2c(-c3cccnc3OC3CC3)cnn2cc1F [Compound I-124, tert-butyl N-[2-[[3-[2-(cyclopropoxy)-3-pyridyl]-6-fluoro-pyrazolo[1,5-a]pyrimidin-5-yl]amino]ethyl]carbamate]
				157	1050	84.6	8.68	COc1ncccc1-c1cnn2ccc(N3CCN(C(=O)OC4(C)COC4)CC3)nc12 [RC-1, (3-methyloxetan-3-yl)-4-[3-(2-methoxy-3-pyridyl)pyrazolo[1,5-a]pyrimidin-5-yl]piperazine-1-carboxylate, reference compound]
151 to 500	501 to 1500	51 to 150	1 to 50					COc1cnc(OC2CC2)c(-c2cnn3ccc(N4CCN(C(=O)O[C@H]5CC(=O)N(C)C5)CC4)nc23)c1 [Compound I-87]
1 to 50	51 to 150	1 to 50	1 to 50					C#C[C@@]1(OC(=O)N2CCN(c3ccn4ncc(-c5cccnc5OC5CC5)c4n3)CC2)CCNC1 [Compound I-16, [(3S)-3-Ethynylpyrrolidin-3-yl]-4-[3-[2-(cyclopropoxy)-3-pyridyl]pyrazolo[1,5-a]pyrimidin-5-yl]piperazine-1-carboxylate]
> 1500	> 1500	501 to 1500	151 to 500					CN1C[C@@H](OC(=O)N2CCN(c3ccn4ncc(-c5cccnc5O)c4n3)CC2)CC1=O [Compound I-98, [(3S)-1-methyl-5-oxo-pyrrolidin-3-yl]-4-[3-(2-hydroxy-3-pyridyl)pyrazolo[1,5-a]pyrimidin-5-yl]piperazine-1-carboxylate]
501 to 1500	151 to 500	51 to 150	1 to 50					CC(C)(C)OC(=O)NCCNc1ccc2ncc(-c3cccnc3OC3CC3)n2n1 [Compound I-129, tert-butyl N-[2-[[3-[2-(cyclopropoxy)-3-pyridyl]imidazo[1,2-b]pyridazin-6-yl]amino]ethyl]carbamate]
51 to 150	151 to 500	151 to 500	1 to 50					C#C[C@]1(OC(=O)N2CCN(c3ccn4ncc(-c5cccnc5OC5CC5)c4n3)CC2)CCNC1 [Compound I-15, [(3R)-3-Ethynylpyrrolidin-3-yl]-4-[3-[2-(cyclopropoxy)-3-pyridyl]pyrazolo[1,5-a]pyrimidin-5-yl]piperazine-1-carboxylate]
> 1500	> 1500	> 1500	501 to 1500					CC(C)(C)OC(=O)N1CCN(c2ccn3ncc(Cl)c3n2)CC1 [Compound I-100, tert-butyl 4-(3-chloropyrazolo[1,5-a]pyrimidin-5-yl)piperazine-1-carboxylate]
501 to 1500	> 1500	51 to 150	1 to 50					CC(C)(C)OC(=O)N1CCN(c2ccn3ncc(-c4cccnc4O)c3n2)CC1 [Compound I-102, tert-butyl 4-[3-(2-hydroxy-3-pyridyl)pyrazolo[1,5-a]pyrimidin-5-yl]piperazine-1-carboxylate]

Structure (SMILES)	IC50 ([1]; class symbols) [nM]	IC50 ([2]; class symbols) [nM]	IC50 ([3]; class symbols) [nM]	IC50 ([4]; class symbols) [nM]	IC50 ([1]; numeric values) [nM]	IC50 ([2]; numeric values) [nM]	IC50 ([3]; numeric values) [nM]	IC50 ([4]; numeric values) [nM]
O=C1C[C@H](OC(=O)N2CCN(c3ccn4ncc(-c5cccnc5NC5CC5)c4n3)CC2)CN1 [Compound I-45, [(3S)-5-Oxopyrrolidin-3-yl]4-[3-[2-(cyclopropylamino)-3-pyridyl]pyrazolo[1,5-a]pyrimidin-5-yl]piperazine-1-carboxylate]	> 1500	> 1500	> 1500	> 1500				
COc1ncccc1-c1cnn2ccc(N3CCN(C(=O)OC4(C)CCNC4)CC3)nc12 (centres unmarked) [Compound I-8, (3-Methylpyrrolidin-3-yl)-4-[3-(2-methoxy-3-pyridyl)pyrazolo[1,5-a]pyrimidin-5-yl]piperazine-1-carboxylate]	1 to 50	151 to 500	1 to 50	1 to 50				
CN1C[C@@H](OC(=O)N2CCN(c3ccn4nccc4n3)CC2)CC1=O [Compound I-97, [(3S)-1-methyl-5-oxo-pyrrolidin-3-yl]-4-pyrazolo[1,5-a]pyrimidin-5-ylpiperazine-1-carboxylate]	> 1500	> 1500	> 1500	> 1500				
CC1(OC(=O)N2CCN(c3ccn4ncc(-c5cccc(C(N)=O)c5)c4n3)CC2)COC1 [Compound I-4, (3-methyloxetan-3-yl)-4-[3-(3-carbamoylphenyl)pyrazolo[1,5-a]pyrimidin-5-yl]piperazine-1-carboxylate]	501 to 1500	501 to 1500	501 to 1500	51 to 150				
